Data taken from patent publication US10953109B2, “Application of GPR45 gene” (FUDAN UNIVERSITY, priority 2015, dated 2021).
“Also recorded” adds a separate entry of the source.

What was measured:
GPR45 = assay: RNA interference of GPR45 in primary culture cells of hypothalamuses of wild type fetal mice, RT-PCR; format: cell-based; conditions: 10 pmol siRNA per well, transfection 72 h
Experimental: […]
For detection of POMC expression, primary cell RNA was extracted to perform reverse transcription to obtain cDNA, then real-time quantitative PCR detection was performed, and experiment steps were the same as embodiment 11. […]

wild type mice = assay: MTII injected into third intraventricular of wild type mice; body weight and fat; format: in vivo
Experimental: (§1) MTII is an agonist of MC3R/MC4R, can simulate a function of a POMC shorn product α-MSH and plays a role of suppressing appetite and promoting energy metabolism. […] When the mutant mice and wild type mice of control groups were injected with equal amounts of normal saline, the body weight was not influenced.

GPR45^PB1/PB1 mice = assay: MTII injected daily into third intraventricular of adult GPR45 homozygote obese mice; body weight and fat; format: in vivo
Experimental: as §1

[1] = wild type mice injected with MTII, six days
[2] = mutant mice, six days after administration, compared with normal saline control

GPR45-siRNA: siRNA, sense 5′-CCGACAUCAUGCUGUCUUUAUTT-3′ (SEQ ID NO. 29), antisense 5′-AUAAAGACAGCAUGAUGUCGGTT-3′ (SEQ ID NO. 30) (chemistry not given here)
expression amount of GPR45 decreased (GPR45): 53.4%
expression amount of POMC decreased (GPR45): 30.7%

melanotan-2 [MTII]
weight of gonadal white adipose tissues decreased (wild type mice; [1]): 44.1%
weight of interscapular brown adipose tissues increased (wild type mice; [1]): 0.4%
weight of retroperitoneal white adipose tissues decreased (wild type mice; [1]): 50.9%
body weight decreased relative to the body weight before injection (wild type mice; wild type mice, six days after MTII was injected): 1.8%
body weight after three days after MTII was injected (GPR45^PB1/PB1 mice; GPR45^PB1/PB1 mice, three days): reduced to the level of the body weight of the wild type mice
fat content (FIG. 24B) (GPR45^PB1/PB1 mice; adult male GPR45 homozygote mice): fat content decreases
body weight (FIG. 24A) (GPR45^PB1/PB1 mice; adult male GPR45 homozygote mice, after six days): body weight decreases
increase of the body weight (GPR45^PB1/PB1 mice; daily injection, adult obese mice): could be suppressed
obesity caused by GPR45 mutations (GPR45^PB1/PB1 mice; intraventricular injection): obesity is suppressed; also recorded: effectively reverses the obesity
body weight decreased relative to the body weight before injection (GPR45^PB1/PB1 mice; mutant mice, six days after MTII was injected): 13.6%
weight of gonadal white adipose tissues decreased (GPR45^PB1/PB1 mice; [2]): 48.5%
weight of interscapular brown adipose tissues decreased (GPR45^PB1/PB1 mice; [2]): 50.4%
weight of retroperitoneal white adipose tissues decreased (GPR45^PB1/PB1 mice; [2]): 66.7%
